Measurements reported in patent publication US11000033B2, “Ketone or oxime compound, and herbicide” (NISSAN CHEMICAL CORPORATION, priority 2014, dated 2021).

Columns and labels:
Format in all cases: in vivo
Apera spica-venti [1] = experiment: Test Example 5: herbicidal effect by foliage application, plastic box (symbol L); settings: 320 g/ha, 3 weeks after application
How it was run: (§1)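 Post-emergence spray; diluvial soil (sterilized), ~1.5 cm seed cover; greenhouse 25–30° C; 14-day-old plants; water-diluted emulsion at predetermined dose; visual score at 3 wk post-treatment.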

wheat = experiment: Test Example 4: effect on crop by soil treatment (symbol e); settings: application herbicide amount 320 g/ha
How it was run: (§2)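 Soil-treatment setup: crop and weed seeds were spot-sown into sterilized diluvial soil, then buried beneath approximately 1.5 cm of it, and the boxes were housed in a 25–30° C. greenhouse.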

Stellaria media = experiment: Test Example 5: herbicidal effect by foliage application, plastic box (symbol P); settings: 320 g/ha, 3 weeks after application
How it was run: as §1

Scirpus juncoides = experiment: Test Example 1: herbicidal activity, application before weed generation in submerged conditions (symbol B); settings: application herbicide amount 320 g/ha
How it was run: (§3)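 Pre-emergence, paddy conditions: emulsifiable formulation diluted in water, dosed onto floodwater (4 cm depth) on sowing day. Alluvial soil; weeds sown mixed; rice transplanted at 2.5-leaf stage. Greenhouse 25–30 °C, 3 wk. Score 0–5 (5 = ≥90% kill, 0 = ≤5%).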

rapeseed [2] = experiment: Test Example 4: effect on crop by soil treatment (symbol g); settings: application herbicide amount 320 g/ha
How it was run: as §2

[3] = system: Echinochloa oryzacola Vasing.; experiment: Test Example 1: herbicidal activity, application before weed generation in submerged conditions (symbol A); settings: application herbicide amount 320 g/ha
How it was run: as §3

Alopecurus myosuroides [4] = experiment: Test Example 4: herbicidal effect by soil treatment (symbol J); settings: application herbicide amount 320 g/ha
How it was run: (§4)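 Seeds were sown in sterilized diluvial soil, covered with about 1.5 cm of soil, and the soil surface was sprayed with a water-diluted emulsion of the compound at a predetermined rate. Plants grew in a greenhouse at 25° C. to 30° C.; effects were scored visually 3 weeks after application.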

Setaria viridis = experiment: Test Example 4: herbicidal effect by soil treatment (symbol G); settings: application herbicide amount 320 g/ha
How it was run: as §4

Alopecurus myosuroides [5] = experiment: Test Example 5: herbicidal effect by foliage application, plastic box (symbol J); settings: 320 g/ha, 3 weeks after application
How it was run: as §1

Abutilon theophrasti = experiment: Test Example 5: herbicidal effect by foliage application, plastic box (symbol M); settings: 320 g/ha, 3 weeks after application
How it was run: as §1

Apera spica-venti [6] = experiment: Test Example 4: herbicidal effect by soil treatment (symbol L); settings: application herbicide amount 320 g/ha
How it was run: as §4

Cyperus difformis = experiment: Test Example 3: herbicidal effect by foliage application, Wagner pot (symbol E); settings: application herbicide amount 320 g/ha
How it was run: (§5)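 In a shallow-flooded alluvial soil system held at 25–30 °C, plants including rice grew for 14 days and were then sprayed over the foliage with emulsion diluted to a fixed herbicide amount. Visual rating followed at 3 weeks.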

Amaranthus retroflexus = experiment: Test Example 5: herbicidal effect by foliage application, plastic box (symbol N); settings: 320 g/ha, 3 weeks after application
How it was run: as §1

Digitaria ciliaris = experiment: Test Example 5: herbicidal effect by foliage application, plastic box (symbol F); settings: 320 g/ha, 3 weeks after application
How it was run: as §1

rapeseed [7] = experiment: Test Example 5: effect on crop by foliage application, plastic box (symbol g); settings: 320 g/ha, 3 weeks after application
How it was run: (§6)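 Foliage-application test plants come from spot sowing in sterilized diluvial soil under a soil layer of about 1.5 cm, grown at 25° C. to 30° C. in a greenhouse.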

beet = experiment: Test Example 5: effect on crop by foliage application, plastic box (symbol f); settings: 320 g/ha, 3 weeks after application
How it was run: as §6

Galium spurium [8] = experiment: Test Example 5: herbicidal effect by foliage application, plastic box (symbol Q); settings: 320 g/ha, 3 weeks after application
How it was run: as §1

Galium spurium [9] = experiment: Test Example 4: herbicidal effect by soil treatment (symbol Q); settings: application herbicide amount 320 g/ha
How it was run: as §4

[10] = system: Echinochloa crus-galli var. crus-galli; experiment: Test Example 3: herbicidal effect by foliage application, Wagner pot (symbol H); settings: application herbicide amount 320 g/ha
How it was run: as §5

Compound	L: Apera spica-venti, herbicidal effect (criteria of Test Example 1) (Apera spica-venti [1])	P: Stellaria media, herbicidal effect (criteria of Test Example 1) (Stellaria media)	Herbicidal effect grade, B: Scirpus juncoides (Scirpus juncoides)	Herbicidal effect grade, A: Echinochloa oryzacola Vasing. [3]	J: Alopecurus myosuroides, herbicidal effect (criteria of Test Example 1) (Alopecurus myosuroides [5])	M: Abutilon theophrasti, herbicidal effect (criteria of Test Example 1) (Abutilon theophrasti)	herbicidal effect on E, grade 0-5 (Cyperus difformis)	N: Amaranthus retroflexus, herbicidal effect (criteria of Test Example 1) (Amaranthus retroflexus)	F: Digitaria ciliaris, herbicidal effect (criteria of Test Example 1) (Digitaria ciliaris)	g: rapeseed, effect on crop (criteria of Test Example 1) (rapeseed [7])	f: beet, effect on crop (criteria of Test Example 1) (beet)	Q: Galium spurium, herbicidal effect (criteria of Test Example 1) (Galium spurium [8])	herbicidal effect on H (Echinochloa crus-galli var. crus-galli), grade 0-5 [10]	e: wheat, effect on crop grade (wheat)	g: rapeseed, effect on crop grade (rapeseed [2])	J: Alopecurus myosuroides, herbicidal effect grade (Alopecurus myosuroides [4])	G: Setaria viridis, herbicidal effect grade (Setaria viridis)	L: Apera spica-venti, herbicidal effect grade (Apera spica-venti [6])	Q: Galium spurium, herbicidal effect grade (Galium spurium [9])	also measured
CC(=O)CC1CC(O)=C(c2c(C)cc(-c3ccc(C(F)(F)F)cc3)cc2C)C1=O (stereo not drawn) [7-005]	4 (Herbicidal ratio of 70% or higher and lower than 90%)	1 (Herbicidal ratio of 5% or higher and lower than 20%)	0 (Herbicidal ratio of 5% or lower (almost no effect))	3 (Herbicidal ratio of 40% or higher and lower than 70%)	2 (Herbicidal ratio of 20% or higher and lower than 40%)	0 (Herbicidal ratio of 5% or lower (almost no effect))	0 (Herbicidal ratio of 5% or lower (almost no effect))	0 (Herbicidal ratio of 5% or lower (almost no effect))	5 (Herbicidal ratio of 90% or more (almost completely withered))	0 (Herbicidal ratio of 5% or lower (almost no effect))	0 (Herbicidal ratio of 5% or lower (almost no effect))	0 (Herbicidal ratio of 5% or lower (almost no effect))	5 (Herbicidal ratio of 90% or more (almost completely withered))							Effect on crop grade, e: wheat (wheat): 0 (Herbicidal ratio of 5% or lower (almost no effect)); Effect on crop grade, g: rapeseed (rapeseed [2]): 0 (Herbicidal ratio of 5% or lower (almost no effect)); Herbicidal effect grade, J: Alopecurus myosuroides (Alopecurus myosuroides [4]): 0 (Herbicidal ratio of 5% or lower (almost no effect)); Herbicidal effect grade, G: Setaria viridis (Setaria viridis): 0 (Herbicidal ratio of 5% or lower (almost no effect)); Herbicidal effect grade, L: Apera spica-venti (Apera spica-venti [6]): 0 (Herbicidal ratio of 5% or lower (almost no effect)); Herbicidal effect grade, Q: Galium spurium (Galium spurium [9]): 0 (Herbicidal ratio of 5% or lower (almost no effect))
CON=C(C)CC1CC(O)=C(c2c(C)cc(OC)cc2C)C1=O (stereo not drawn) [6-055]	5 (Herbicidal ratio of 90% or more (almost completely withered))	4 (Herbicidal ratio of 70% or higher and lower than 90%)	1 (Herbicidal ratio of 5% or higher and lower than 20%)	4 (Herbicidal ratio of 70% or higher and lower than 90%)	5 (Herbicidal ratio of 90% or more (almost completely withered))	1 (Herbicidal ratio of 5% or higher and lower than 20%)	5 (Herbicidal ratio of 90% or more (almost completely withered))	0 (Herbicidal ratio of 5% or lower (almost no effect))	5 (Herbicidal ratio of 90% or more (almost completely withered))	5 (Herbicidal ratio of 90% or more (almost completely withered))	0 (Herbicidal ratio of 5% or lower (almost no effect))	3 (Herbicidal ratio of 40% or higher and lower than 70%)	5 (Herbicidal ratio of 90% or more (almost completely withered))	0 (Herbicidal ratio of 5% or lower (almost no effect))	0 (Herbicidal ratio of 5% or lower (almost no effect))	4 (Herbicidal ratio of 70% or higher and lower than 90%)	5 (Herbicidal ratio of 90% or more (almost completely withered))	5 (Herbicidal ratio of 90% or more (almost completely withered))	0 (Herbicidal ratio of 5% or lower (almost no effect))	
CON=C(C)CC1CC(O)=C(c2c(C)cc(-c3ccccn3)cc2C)C1=O (mixture of isomers) [6-051]			4 (Herbicidal ratio of 70% or higher and lower than 90%)	4 (Herbicidal ratio of 70% or higher and lower than 90%)			5 (Herbicidal ratio of 90% or more (almost completely withered))						5 (Herbicidal ratio of 90% or more (almost completely withered))	2 (Herbicidal ratio of 20% or higher and lower than 40%)	4 (Herbicidal ratio of 70% or higher and lower than 90%)	5 (Herbicidal ratio of 90% or more (almost completely withered))	5 (Herbicidal ratio of 90% or more (almost completely withered))	5 (Herbicidal ratio of 90% or more (almost completely withered))	0 (Herbicidal ratio of 5% or lower (almost no effect))	L: Apera spica-venti, herbicidal effect grade (Apera spica-venti [1]): 5 (Herbicidal ratio of 90% or more (almost completely withered)); P: Stellaria media, herbicidal effect grade (Stellaria media): 4 (Herbicidal ratio of 70% or higher and lower than 90%); J: Alopecurus myosuroides, herbicidal effect grade (Alopecurus myosuroides [5]): 5 (Herbicidal ratio of 90% or more (almost completely withered)); M: Abutilon theophrasti, herbicidal effect grade (Abutilon theophrasti): 1 (Herbicidal ratio of 5% or higher and lower than 20%); N: Amaranthus retroflexus, herbicidal effect grade (Amaranthus retroflexus): 3 (Herbicidal ratio of 40% or higher and lower than 70%); F: Digitaria ciliaris, herbicidal effect grade (Digitaria ciliaris): 5 (Herbicidal ratio of 90% or more (almost completely withered)); g: rapeseed, effect on crop grade (rapeseed [7]): 5 (Herbicidal ratio of 90% or more (almost completely withered)); f: beet, effect on crop grade (beet): 3 (Herbicidal ratio of 40% or higher and lower than 70%); Q: Galium spurium, herbicidal effect grade (Galium spurium [8]): 4 (Herbicidal ratio of 70% or higher and lower than 90%)
